Results on six molecules are retold here after patent US20180338927A1, “ETHER CELLULOSE DERIVATIVE MICROPARTICLE” (Toray Industries, Inc., priority 2015, published 2018).

Counter-ions that a name gives are not always drawn.

The nature of this data set: Comparison of supported amounts by HPLC (Test Example 8). The conditions noted are these: porous Example 6 microparticles (Examples 10 to 15) versus raw material ethyl cellulose powder (Comparative Examples 6 to 11). Format: physicochemical. How it is done:
The supported amount ratio of a physiologically active substance between microparticles in an example and microparticles in a comparative example supporting the same physiologically active substance was calculated on the basis of the following equation. HPLC measurement was carried out as follows. After weighing 25 mg each of the microparticles in the examples and the comparative examples, the microparticles were respectively put in 50-mL volumetric flasks. Each type of microparticles was completely dissolved in 5 mL of ethanol added, and the solution was diluted with deionized water added and passed through a 0.45-μm filter to provide an HPLC sample. The sample was measured under the same conditions as for Test Example 5.

In the case of `Cn1c(=O)c2[nH]cnc2n(C)c1=O` [Theophylline, theophylline], the “Support amount ratio (=example/comparative example)” value is recorded as 1.2.
For the molecule `O=C(O)c1ccccc1O` [Salicylic acid, salicylic acid], the “Support amount ratio (=example/comparative example)” value is reported as 1.6.
Turning to `Cc1ncc(C[n+]2csc(CCO)c2C)c(N)n1` [Thiamine hydrochloride, thiamine hydrochloride], the “Support amount ratio (=example/comparative example)” value is 10.7.
To `CC(C)Cc1ccc(C(C)C(=O)O)cc1` (stereo not drawn) [Ibuprofen, ibuprofen] belongs 1.2; to `C=C[C@H]1C[N@@]2CC[C@H]1C[C@H]2[C@H](O)c1ccnc2ccc(OC)cc12` [Quinine hydrochloride dihydrate, quinine hydrochloride dihydrate], 1.8; to `CC(=O)Nc1ccc(O)cc1` [Acetaminophen, acetaminophen], 1.4.
